How the values were obtained:
[1] = test system: ApoE deficient mice; test: Anti-hypertensive effect in ApoE knockout mice (tail-cuff blood pressure); assay type: in vivo; settings: 30 mg/kg/d, 4 months treatment, placebo 115±2 mmHg, p<0.05
Description: (§1) Animals and Treatment (Experiments A-C)
(§2) ApoE and eNOS deficient mice (C57BL/6J background, Jackson Laboratory, Bar Harbor, Me.) were used. All animals were 10-12 weeks of age and weighed 22 to 28 g. Three days before surgery mice were divided into 4 groups (apoE control, n=10-12; apoE with test compounds, n=10-12; eNOS control, n=10-12; eNOS with test compounds, n=10-12) and received either a standard rodent chow (containing 4% fat and 0.001% cholesterol; in the following designated as placebo group) or a standard rodent chow+test compound (10 or 30 mg/kg/d p.o.).
A Anti-Hypertensive Effect in ApoE Knockout Mice
(§3) Blood-pressure was determined in conscious mice using a computerized tail-cuff system (Visitech Systems, Apex, Nc). After treatment of ApoE deficient mice and eNOS deficient mice with the test compounds the blood pressure was compared to the results obtained with a placebo treatment.

[2] = test system: eNOS promoter; test: Activation of eNOS transcription (eNOS promoter-luciferase reporter gene assay); assay type: cell-based, human; settings: Homo sapiens, 18 h, 18 h incubation
In short: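 Human endothelial cell line stably expressing firefly luciferase under a 3.5 kB eNOS promoter fragment, treated 18 h with compounds (0.5% DMSO final). Luciferase induction relative to solvent gives transcription induction ratio; EC50 read graphically from ratio versus concentration.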

[3] = test system: vascular eNOS expression; test: Vascular eNOS expression (aorta, quantitative western blotting) in femoral artery cuff model; assay type: in vivo; settings: ApoE deficient mice, 10 mg/kg/d, versus placebo
Procedure: After 3 day treatment of ApoE deficient mice with the respective compound, (10 mg/kg/d pressed in chow), animals were anesthetized with an intraperitoneal injection of pentobarbital (60 mg/kg) followed by an intramuscular injection of xylazin (2 mg/kg) and a cuff was placed around the femoral artery as described in Moroi et al. (J. Clin. Invest. 101: 1225-32, 1998). Briefly, the left femoral artery was dissected. A non-occlusive 2.0 mm polyethylene cuff made of PE-50 tubing (inner diameter 0.56 mm, outer diameter 0.965 mm, Becton Dickinson, Mountain View, Calif.) was placed around the artery and tied in place with two 7-0 sutures. The right femoral artery was isolated from the surrounding tissues but a cuff was not placed. Treatment with the respective compound was continued for 14 days after surgery. Then the animals were sacrificed. The aorta were taken for determination of vascular eNOS expressions by quantitative western blotting. Both femoral arteries were harvested, fixed in formalin and embedded in paraffin. 20 cross sections (10 μm) were cut from the cuffed portion of the left femoral artery and from the corresponding segment of the right artery. […] For each cross section the area of the lumen, the neointima and the media were determined. […] The ratio between the area of the neointima and the area of the media was expressed as the neointima/media ratio.

[4] = test system: ApoE deficient mice; test: Inhibition of neointima formation and atherogenesis (femoral artery cuff) in ApoE deficient mice; assay type: in vivo; settings: 10 mg/kg/d in chow, 3 days before to 14 days after cuff surgery, versus placebo
Description: as §1, §2
B Inhibition of Neointima Formation and Atherogenesis (Femoral Artery Cuff)
After 3 day treatment of ApoE deficient mice with the respective compound, (10 mg/kg/d pressed in chow), animals were anesthetized with an intraperitoneal injection of pentobarbital (60 mg/kg) followed by an intramuscular injection of xylazin (2 mg/kg) and a cuff was placed around the femoral artery as described in Moroi et al. (J. Clin. Invest. 101: 1225-32, 1998). Briefly, the left femoral artery was dissected. […] The aorta were taken for determination of vascular eNOS expressions by quantitative western blotting. […] For each cross section the area of the lumen, the neointima and the media were determined. […] The ratio between the area of the neointima and the area of the media was expressed as the neointima/media ratio.

[5] = test system: vascular eNOS expression; test: Vascular eNOS expression (femoral arteries) after chronic treatment; assay type: in vivo; settings: ApoE deficient mice, 16 weeks treatment
Procedure: ApoE deficient mice were treated for 16 weeks with the respective compound pressed in chow and finally sacrificed. Aortas were removed from each mouse, fixed in formalin and embedded in paraffin. Plaque formation was measured via lipid lesion formation in the aortas (from aortic arch to diaphragm) and was analyzed by oil red O staining. For quantifying the effect of the respective compound on vascular eNOS expression the femoral arteries were used in this experiment.

[6] = test system: ApoE deficient mice; test: Improvement of coronary function in diseased ApoE deficient mice (isolated working heart); assay type: in vivo; settings: isolated hearts of ApoE deficient mice, 30 mg/kg/d p.o. for 8 weeks
Description: D Improvement of Coronary Function in Diseased ApoE Deficient Mice
Old Male wild-type C57BL/6J mice (Charles River Wiga GmbH, Sulzfeld), and apoE deficient mice (C57BL/6J background, Jackson Laboratory, Bar Harbor, Me.) 6 month of age and weighing 28 to 36 g were used in the experiments. Mice were divided into 3 groups (C57BL/6, n=8; apoE control, n=8; apoE with respective compound, n=8) and received for 8 weeks either a standard rodent chow (containing 4% fat and 0.001% cholesterol) or a standard rodent chow+respective compound (30 mg/kg/d p.o.).
Mice were anesthetized with sodium pentobarbitone (100 mg/kg i.p.), and the hearts were rapidly excised and placed into ice-cold perfusion buffer. The aorta was cannulated and connected to a perfusion apparatus (HUGO SACHS ELECTRONICS, Freiburg, Germany) which was started immediately at a constant perfusion pressure of 60 mm Hg. Hearts were perfused in a retrograde fashion with modified Krebs bicarbonate buffer, equilibrated with 95% O2 and 5% CO2 and maintained at 37.5° C.
A beveled small tube (PE 50) was passed through a pulmonary vein into the left ventricle and pulled through the ventricular wall, anchored in the apex by a fluted end, and connected to a tip-micromanometer (Millar 1.4 French). The left atrium was cannulated through the same pulmonary vein and the heart switched to the working mode with a constant preload pressure of 10 mm Hg and an afterload pressure of 60 mm Hg. Aortic outflow and atrial inflow were continuously measured using ultrasonic flow probes (HSE/Transonic Systems Inc.). Coronary flow was calculated as the difference between atrial flow and aortic flow. All hemodynamic data were digitized at a sampling rate of 1000 Hz and recorded with a PC using specialized software (HEM, Notocord).
Hearts were allowed to stabilize for 30 min. All functional hemodynamic data were measured during steady state, and during volume- and pressure loading.
Left ventricular function curves were constructed by varying pre-load pressure. […]

[7] = test system: eNOS deficient mice; test: Blood pressure in eNOS deficient mice (tail-cuff); assay type: in vivo; settings: similar dosing, 4 weeks treatment
Description: as §1, §2, §3

## O=C(NC1Cc2ccccc2C1)c1ccc(F)cc1 [Compound 21, 4-FLUORO-N-(INDAN-2-YL)-BENZAMIDE]
[1]
  blood pressure: 92±5 mmHg
[2]; maximum transcription induction ratio (luciferase with compound / solvent alone), read-out: TIR (max)
  maximal fold induction: 4.1
[2]; Endothelial cell, EC50 of transcription induction ratio, determined graphically, human endothelial cell line, read-out: EC-50
  EC50: 800 nM
[3]
  vascular eNOS expression enhanced by a factor: 2.1
[4]
  reduction of neo-intima formation (factor): 2
[5]
  vascular eNOS expression up-regulation: 1.75 fold
[6]
  pre-load dependent coronary flow: improvement
[6]; indicator for anti-ischemic efficacy
  incidence of ventricular arrhythmias: reduction
[6]; untreated ApoE 3.6, wildtype 4.95 ml/min
  coronary flow: 5 mL/min
[7]
  blood pressure reduction: No blood pressure reduction
